Data: patent US7811352B2, “Fertilizer compositions and methods of using” (priority 2005, dated 2010)

Legend:
[1] = tested on: Pennlinks creeping bentgrass for greens; experiment: Phytotoxic injury rating, greens creeping bentgrass (Example 16); assay type: in vivo
Text: In this Example, the effect of a fertilizer comprising lysine on cool season greens quality turfgrass growth was examined. The effects of lysine (HCl) and LIQUID LYSINE on a common type of golf course greens quality turfgrass (Pennlinks creeping bentgrass for greens, mown at 0.1875 in height of cut) were compared with those of urea, Milorganite and a blended fertilizer (a blend of methylene urea and urea in an approximately 1:1 ratio).
Fifteen fertilizer treatments comprising three concentrations of each fertilizer composition (Milorganite (N—P—K, 6-2-0), urea (N—P—K, 46-0-0), a blended fertilizer, LIQUID LYSINE N—P—K, 10-2-1), and lysine (HCl) (N—P—K, 15-2-1)) were prepared and applied to 3 replications of well established Pennlinks creeping bentgrass mown to 0.1875 in height cut. The urea, lysine (HCl), and LIQUID LYSINE were dissolved/suspended in 1.5 gal water prior to application. Each fertilizer treatment was applied in concentrations of 0.125 lb N/1000 ft^2/week, 0.250 lb N/1000 ft^2/week and 0.750 lb N/1000 ft^2/week. The urea, LIQUID LYSINE and lysine (HCl) were applied as foliar liquids, while Milorganite and blended fertilizer were applied as granular fertilizers. Plot size was 4 ft×8 ft laid out in a replicated complete block design. Plots were mowed at 0.1875 inches height before fertilizer application and mowed five times per week to 0.1875 inch height. Grass clippings were removed from the plots after each mowing. Irrigation (0.15 inch) was applied following application and daily thereafter. Plots were rated for turfgrass quality (scale of 1-9 where 9=dark green turf, 1=dead/brown turf, and 6=minimally acceptable turf) and phytotoxic injury (scale of 0-9 where 9=significant foliar injury and 2=minimally objectionable foliar injury) throughout the study period. Quality was measured prior to application (day 0) and day 37, day 70 and day 95 after application. Injury was measured on day 37, day 70 and day 95 after application. Ai) additional set of turfgrass plots were fertilized with three treatments of a soy concentrate fertilizer with the same application rates and methods. The quality and phytotoxic injury of the soy concentrate fertilizer plots were measured on day 95. All data was subject to statistical analysis and significant means were determined.

[2] = tested on: total soil bacteria and fungi; experiment: Soil microbial population (plate count) after fertilizer application to Kentucky bluegrass turf (Example 8); details: 1.0 lb N/1000 ft^2; 24, 48 and 72 hours after application
Method: In this Example, the effect on various embodiments of the fertilizer composition on soil microbial population (bacterial and fungal) was examined. The Example compared the effect on total microbial populations 24, 48 and 72 hours after application of the fertilizer to a Kentucky bluegrass turf.
The following fertilizer compositions were used: urea, dry lysine (lysine (HCl), LIQUID LYSINE brand aqueous lysine solution (available from Archer-Daniels-Midland Company, Decatur, Ill.), a threonine cell mass, a lysine cell mass, and soy/lysine combination (a granular mixture of dry lysine and soy flour, soy flakes and soybean oil. Analysis of the threonine cell mass is presented in Table 5. The effect of the fertilizer compositions on microbial population were compared with a control plot to which no fertilizer composition was applied. The dry lysine was dissolved in water and applied by spraying on the turf plot. The fertilizer compositions were applied at a rate of 1.0 lb N/1000 ft^2 of Kentucky bluegrass turf Soil samples from the turf were analyzed for total soil bacteria and fungi by standard plate count and dilution series.

[3] = tested on: ultra-dwarf Bermuda grass; experiment: Turfgrass quality and color ratings, ultra-dwarf Bermuda grass greens (Example 11); assay type: in vivo; design: key: 1-10 scale: 10 = dark green, 6 = initially acceptable, 1 = dead/brown; details: scale 1-10
Text: In this Example, the effect of a fertilizer comprising lysine on warm season turfgrass growth was examined. The effects of lysine (HCl) and LIQUID LYSINE on a common type of golf course greens quality turfgrass (ultra-dwarf Bermuda grass) were compared with those of urea and Milorganite.
Twelve fertilizer treatments comprising three concentrations of each fertilizer composition (Milorganite (N—P—K, 6-2-0), urea (N—P—K, 46-0-0), LIQUID LYSINE (N—P—K, 10-2-1), and lysine (HCl) (N—P—K, 15-2-1)) were prepared and applied to 3 replications of ultra-dwarf Bermuda grass. The lysine (HCl) was dissolved in water prior to application. Each fertilizer treatment was applied in concentrations of 0.125 lb N/1000 ft^2/week, 0.25 lb N/1000 ft^2/week and 0.75 lb N/1000 ft^2/week. The urea, LIQUID LYSINE and lysine (HCl) were applied as foliar liquids, while Milorganite was applied as a granular fertilizer. Plot size was 1 m×1 m set up as a randomized complete block. Plots were mowed at 0.125 inches before fertilizer application. Irrigation (0.15 inch) was applied following application. Plots were rated for turfgrass quality and color (scale of 1-10 where 10=dark green turf, 1=dead/brown turf, and 6=initially acceptable turf) and phytotoxicity (scale of 0-5, where 5=worst, and 2=minimally objectionable) throughout the study period. Quality, color, and phytotoxicity were measured on 2 days before application (day −2) and day 2, day 5, day 15 and day 21 after application. All data was subject to statistical analysis and significant means were determined. Average turfgrass quality ratings for the treatments are presented in Table 12 and the quality results for application rates of 0.25 lb N/1000 ft^2/week are graphically presented in FIG. 6.

[4] = Weekly Rate 0.125 lbs N/1000 ft^2, Day 37
[5] = Weekly Rate 0.125 lbs N/1000 ft^2, Day 70
[6] = Weekly Rate 0.125 lbs N/1000 ft^2, Day 95
[7] = Weekly Rate 0.25 lbs N/1000 ft^2, Day 37
[8] = Weekly Rate 0.25 lbs N/1000 ft^2, Day 70
[9] = Weekly Rate 0.25 lbs N/1000 ft^2, Day 95
[10] = Weekly Rate 0.75 lbs N/1000 ft^2, Day 37
[11] = Weekly Rate 0.75 lbs N/1000 ft^2, Day 70
[12] = Weekly Rate 0.75 lbs N/1000 ft^2, Day 95
[13] = Weekly Rate 0.125 lbs N/1000 ft^2, Day 2
[14] = Weekly Rate 0.125 lbs N/1000 ft^2, Day 5
[15] = Weekly Rate 0.125 lbs N/1000 ft^2, Day 15
[16] = Weekly Rate 0.125 lbs N/1000 ft^2, Day 21
[17] = Weekly Rate 0.125 lbs N/1000 ft^2, Day −2 (before application)
[18] = Weekly Rate 0.25 lbs N/1000 ft^2, Day 2
[19] = Weekly Rate 0.25 lbs N/1000 ft^2, Day 5
[20] = Weekly Rate 0.25 lbs N/1000 ft^2, Day 15
[21] = Weekly Rate 0.25 lbs N/1000 ft^2, Day 21
[22] = Weekly Rate 0.25 lbs N/1000 ft^2, Day −2 (before application)
[23] = Weekly Rate 0.75 lbs N/1000 ft^2, Day 2
[24] = Weekly Rate 0.75 lbs N/1000 ft^2, Day 5
[25] = Weekly Rate 0.75 lbs N/1000 ft^2, Day 15
[26] = Weekly Rate 0.75 lbs N/1000 ft^2, Day 21
[27] = Weekly Rate 0.75 lbs N/1000 ft^2, Day −2 (before application)

Row | SMILES | Injury Rating - Greens Bentgrass [1, 4] | Injury Rating - Greens Bentgrass [1, 5] | Injury Rating - Greens Bentgrass [1, 6] | Injury Rating - Greens Bentgrass [1, 7] | Injury Rating - Greens Bentgrass [1, 8] | Injury Rating - Greens Bentgrass [1, 9] | Injury Rating - Greens Bentgrass [1, 10] | Injury Rating - Greens Bentgrass [1, 11] | Injury Rating - Greens Bentgrass [1, 12] | soil microbial populations compared with controls [2] | Color Rating - Dwarf Bermuda Grass [3, 13] | Quality Ratings - Dwarf Bermuda Grass [3, 13] | Color Rating - Dwarf Bermuda Grass [3, 14] | Quality Ratings - Dwarf Bermuda Grass [3, 14] | Color Rating - Dwarf Bermuda Grass [3, 15] | Quality Ratings - Dwarf Bermuda Grass [3, 15] | Color Rating - Dwarf Bermuda Grass [3, 16] | Quality Ratings - Dwarf Bermuda Grass [3, 16] | Color Rating - Dwarf Bermuda Grass [3, 17] | Quality Ratings - Dwarf Bermuda Grass [3, 17] | further results
1 | Cl.NCCCC[C@H](N)C(=O)O [Lys (HCl) 15% N, L-lysine monohydrochloride] | 1.0b | 1.0 | 2.3ab | 1.0b | 1.0 | 2.7ab | 2.0a | 1.3 | 2.3ab | did not significantly differ | 7.2bc | 7.3bcd | 7.0cd | 6.7de | 6.8c-f | 6.3ef | 6.5cd | 6.2cd | 6.8 | 6.8 | Color Rating - Dwarf Bermuda Grass [3, 18]: 7.2bc; Quality Ratings - Dwarf Bermuda Grass [3, 18]: 7.2cd; Color Rating - Dwarf Bermuda Grass [3, 19]: 7.2bcd; Quality Ratings - Dwarf Bermuda Grass [3, 19]: 7.2cd; Color Rating - Dwarf Bermuda Grass [3, 20]: 7.2bcd; Quality Ratings - Dwarf Bermuda Grass [3, 20]: 7.2abc; Color Rating - Dwarf Bermuda Grass [3, 21]: 7.3ab; Quality Ratings - Dwarf Bermuda Grass [3, 21]: 7.2ab; Color Rating - Dwarf Bermuda Grass [3, 22]: 7.0; Quality Ratings - Dwarf Bermuda Grass [3, 22]: 6.5; Color Rating - Dwarf Bermuda Grass [3, 23]: 7.3abc; Quality Ratings - Dwarf Bermuda Grass [3, 23]: 7.5abc; Color Rating - Dwarf Bermuda Grass [3, 24]: 7.2bcd; Quality Ratings - Dwarf Bermuda Grass [3, 24]: 7.5bc; Color Rating - Dwarf Bermuda Grass [3, 25]: 7.7ab; Quality Ratings - Dwarf Bermuda Grass [3, 25]: 7.3abc; Color Rating - Dwarf Bermuda Grass [3, 26]: 7.2b; Quality Ratings - Dwarf Bermuda Grass [3, 26]: 6.8abc; Color Rating - Dwarf Bermuda Grass [3, 27]: 6.7; Quality Ratings - Dwarf Bermuda Grass [3, 27]: 6.5
2 | NC(N)=O [Urea, urea, reference compound] | 1.0b | 1.3 | 3.0ab | 1.0b | 1.0 | 2.0ab | 1.0b | 1.0 | 2.7ab | did not significantly differ | 7.7ab | 7.7abc | 7.7ab | 7.5bc | 7.2bcd | 7.0bcd | 6.8bc | 6.7abc | 7.0 | 6.5 | Color Rating - Dwarf Bermuda Grass [3, 18]: 7.7ab; Quality Ratings - Dwarf Bermuda Grass [3, 18]: 7.7abc; Color Rating - Dwarf Bermuda Grass [3, 19]: 7.3abc; Quality Ratings - Dwarf Bermuda Grass [3, 19]: 7.5bc; Color Rating - Dwarf Bermuda Grass [3, 20]: 7.3bc; Quality Ratings - Dwarf Bermuda Grass [3, 20]: 7.0bcd; Color Rating - Dwarf Bermuda Grass [3, 21]: 7.3ab; Quality Ratings - Dwarf Bermuda Grass [3, 21]: 6.8abc; Color Rating - Dwarf Bermuda Grass [3, 22]: 6.7; Quality Ratings - Dwarf Bermuda Grass [3, 22]: 6.3; Color Rating - Dwarf Bermuda Grass [3, 23]: 7.8a; Quality Ratings - Dwarf Bermuda Grass [3, 23]: 8.2a; Color Rating - Dwarf Bermuda Grass [3, 24]: 7.8a; Quality Ratings - Dwarf Bermuda Grass [3, 24]: 8.3a; Color Rating - Dwarf Bermuda Grass [3, 25]: 8.0a; Quality Ratings - Dwarf Bermuda Grass [3, 25]: 7.5ab; Color Rating - Dwarf Bermuda Grass [3, 26]: 7.8a; Quality Ratings - Dwarf Bermuda Grass [3, 26]: 7.3a; Color Rating - Dwarf Bermuda Grass [3, 27]: 6.8; Quality Ratings - Dwarf Bermuda Grass [3, 27]: 6.3
